Our source for the IC50 values is patent publication US20250179103A1, “6-OXODECAHYDROPYRROLO[1,2-A][1,5]DIAZOCINE AND 6-OXODECAHYDRO-4H-PYRROLO[2,1-D][1,5]THIAZOCINE DERIVATIVES AS STAT3 AND STAT6 MODULATORS FOR THE TREATMENT OF CANCER AND INFLAMMATORY CONDITIONS” (Recludix Pharma, Inc., priority 2022, published 2025).

The structures appear in SMILES notation.

Assay [1] has as its target T1, Recombinant STAT3 protein (STAT3(G127-I722)) (Homo sapiens, UniProt P40763).
T1 construct: Recombinant STAT3 protein (STAT3(G127-I722))
Put plainly: STAT3 Fluorescence Polarization (FP) Assay. The format is binding. As to conditions: STAT3(G127-I722) 25 nM, probe 5-FAM-GpYLPQTV-NH2 2 nM, 45-minute incubation. In outline:
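Fluorescence polarization after a 45-min room-temperature incubation measured compound displacement of a 2 nM fluorescein-labelled phosphotyrosine peptide (5-FAM-GpYLPQTV-NH2) from 25 nM recombinant STAT3(G127-I722). Buffer was 10 mM HEPES pH 7.4 with 1% DMSO final. IC50s were fitted by nonlinear regression of mP against log concentration.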
Background: In fluorescence polarisation assays a small probe gives low polarisation when free and higher when bound to something large.

In assay [2] the target is T2, Recombinant STAT6 protein (STAT6(W123-T658)) (Homo sapiens, UniProt P42226).
T2 construct: Recombinant STAT6 protein (STAT6(W123-T658))
T2 sequence (P42226 123-658): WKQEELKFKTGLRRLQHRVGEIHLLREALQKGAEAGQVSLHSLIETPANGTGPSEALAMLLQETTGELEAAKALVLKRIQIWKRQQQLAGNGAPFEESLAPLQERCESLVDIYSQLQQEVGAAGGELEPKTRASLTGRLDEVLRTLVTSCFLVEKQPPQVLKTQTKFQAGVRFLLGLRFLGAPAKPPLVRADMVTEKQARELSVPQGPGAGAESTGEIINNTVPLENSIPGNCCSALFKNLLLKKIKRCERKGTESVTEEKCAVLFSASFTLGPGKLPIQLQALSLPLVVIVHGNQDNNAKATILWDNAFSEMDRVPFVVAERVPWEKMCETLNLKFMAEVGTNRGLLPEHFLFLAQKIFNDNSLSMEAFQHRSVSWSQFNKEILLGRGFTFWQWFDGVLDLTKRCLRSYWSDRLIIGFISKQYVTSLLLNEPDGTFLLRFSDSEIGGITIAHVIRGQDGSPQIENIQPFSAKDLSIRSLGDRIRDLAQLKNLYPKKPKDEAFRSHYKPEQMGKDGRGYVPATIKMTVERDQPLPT
As to the kind of experiment: STAT6 Fluorescence Polarization (FP) Assay. As to conditions: STAT6(W123-T658) 250 nM, probe 5-FAM-ApYKPFQDLI-NH2 2 nM, 45-minute incubation. The format is binding. In outline: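 Displacement of a fluorescent phosphotyrosine peptide (5-FAM-ApYKPFQDLI-NH2, 2 nM) from STAT6(W123-T658) (250 nM), 1% DMSO, pH 7.4 HEPES buffer. After 45 min at room temperature, polarization (mP) was plotted versus log compound concentration and fitted by nonlinear regression to give IC50.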

T1 sequence (P40763 127-722): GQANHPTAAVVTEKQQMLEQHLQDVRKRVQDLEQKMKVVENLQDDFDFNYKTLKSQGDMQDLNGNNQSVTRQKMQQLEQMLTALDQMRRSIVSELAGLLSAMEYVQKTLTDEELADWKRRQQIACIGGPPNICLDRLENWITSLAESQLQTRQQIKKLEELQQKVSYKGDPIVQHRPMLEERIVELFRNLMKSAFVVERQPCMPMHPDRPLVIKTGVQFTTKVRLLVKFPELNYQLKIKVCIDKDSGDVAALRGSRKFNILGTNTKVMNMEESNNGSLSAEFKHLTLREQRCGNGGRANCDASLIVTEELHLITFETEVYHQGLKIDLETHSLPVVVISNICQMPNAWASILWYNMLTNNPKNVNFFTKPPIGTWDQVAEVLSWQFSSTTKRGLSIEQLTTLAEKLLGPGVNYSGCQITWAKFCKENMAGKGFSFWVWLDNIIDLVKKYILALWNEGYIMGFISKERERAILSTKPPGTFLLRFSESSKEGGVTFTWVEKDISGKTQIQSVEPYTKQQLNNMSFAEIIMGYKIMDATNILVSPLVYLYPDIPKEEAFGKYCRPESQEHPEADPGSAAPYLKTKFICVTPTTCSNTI

By IC50 is commonly meant the midpoint of a concentration-inhibition curve. On to `CC(=O)N1CC[C@H]2CC[C@@H](C(=O)Nc3ccc(-c4ccccc4)[nH]c3=O)N2C(=O)[C@@H](NC(=O)c2cc3cc(C(F)(F)P(=O)(O)O)ccc3[nH]2)C1` [Compound 180, ((2-(((5S,8S,10aR)-3-acetyl-6-oxo-8-((2-oxo-6-phenyl-1,2-dihydropyridin-3-yl)carbamoyl)decahydropyrrolo[1,2-a][1,5]diazocin-5-yl)carbamoyl)-1H-indol-5-yl)difluoromethyl)phosphonic acid], for which the results for the half-maximal inhibitory concentration (IC50) in assay [1] and in assay [2] were 100 to 1000 nM and 300 to 3000 nM, respectively.
For `CC(=O)N1CC[C@H]2CC[C@@H](C(=O)Nc3ccccc3)N2C(=O)[C@@H](NC(=O)c2cc3cc(C(F)(F)P(=O)(O)O)ccc3s2)C1` [Compound 181, ((2-(((5S,8S,10aR)-3-acetyl-6-oxo-8-(phenylcarbamoyl)decahydropyrrolo[1,2-a][1,5]diazocin-5-yl)carbamoyl)benzo[b]thiophen-5-yl)difluoromethyl)phosphonic acid], the IC50 lay in the range of 1000 to 10000 nM in assay [1] and 300 to 3000 nM in assay [2].
Take `CC(=O)N1CC[C@H]2CC[C@@H](C(=O)N[C@H]3CN(C(C)=O)C[C@@H]3O)N2C(=O)[C@@H](NC(=O)c2cc3cc(C(F)(F)P(=O)(O)O)ccc3s2)C1` [Compound 182, ((2-(((5S,8S,10aR)-3-acetyl-8-(((3S,4S)-1-acetyl-4-hydroxypyrrolidin-3-yl)carbamoyl)-6-oxodecahydropyrrolo[1,2-a][1,5]diazocin-5-yl)carbamoyl)benzo[b]thiophen-5-yl)difluoromethyl)phosphonic acid]: the IC50 in assay [1] is 100 to 1000 nM; in assay [2], 300 to 3000 nM.
For the molecule `CC(=O)N1CC[C@H]2CC[C@@H](C(=O)N(C)[C@H]3CN(C(C)=O)C[C@@H]3O)N2C(=O)[C@@H](NC(=O)c2cc3cc(C(F)(F)P(=O)(O)O)ccc3s2)C1` [Compound 183, ((2-(((5S,8S,10aR)-3-acetyl-8-(((3S,4S)-1-acetyl-4-hydroxypyrolidin-3-yl)(methyl)carbamoyl)-6-oxodecaohydrpyrrolo[1,2-a][1,5]diazocin-5-yl)carbamoyl)benzo[b]thiophen-5-yl)difluoromethyl)phosphonic acid], the half-maximal inhibitory concentration (IC50) in assay [1] lay within 1000 to 10000 nM; in assay [2] it was 300 to 3000 nM.
In the case of `CO[C@H]1CN(C(C)=O)C[C@@H]1NC(=O)[C@@H]1CC[C@@H]2CCN(C(C)=O)C[C@H](NC(=O)c3cc4cc(C(F)(F)P(=O)(O)O)ccc4s3)C(=O)N21` [Compound 184, ((2-(((5S,8S,10aR)-3-acetyl-8-(((3S,4S)-1-acetyl-4-methoxypyrrolidin-3-yl)carbamoyl)-6-oxodecahydropyrrolo[1,2-a][1,5]diazocin-5-yl)carbamoyl)benzo[b]thiophen-5-yl)difluoromethyl)phosphonic acid], the half-inhibitory concentration (IC50) lay in the range of 100 to 1000 nM in assay [1] and 300 to 3000 nM in assay [2].
Regarding `CC(=O)N1CC[C@H]2CC[C@@H](C(=O)N(C)c3ccc(C(C)(C)C)cc3)N2C(=O)[C@@H](NC(=O)c2cc3cc(C(F)(F)P(=O)(O)O)ccc3s2)C1` [Compound 185, ((2-(((5S,8S,10aR)-3-acetyl-8-((4-(tert-butyl)phenyl)(methyl)carbamoyl)-6-oxodecahydropyrrolo[1,2-a][1,5]diazocin-5-yl)carbamoyl)benzo[b]thiophen-5-yl)difluoromethyl)phosphonic acid], the IC50 fell in the range of 1000 to 10000 nM in assay [1] and 300 to 3000 nM in assay [2].
The like results for `CC(=O)N1CC[C@H]2CC[C@@H](C(=O)N3CCC[C@H]3Cc3ccccc3)N2C(=O)[C@@H](NC(=O)c2cc3cc(C(F)(F)P(=O)(O)O)ccc3s2)C1` [Compound 186, ((2-(((5S,8S,10aR)-3-acetyl-8-((S)-2-benzylpyrrolidine-1-carbonyl)-6-oxodecahydropyrrolo[1,2-a][1,5]diazocin-5-yl)carbamoyl)benzo[b]thiophen-5-yl)difluoromethyl)phosphonic acid] were, in that order, 1000 to 10000 nM and at most 300 nM.
Consider `CC(=O)N1CC[C@H]2CC[C@@H](C(=O)N(C)c3ccc(Cl)cc3)N2C(=O)[C@@H](NC(=O)c2cc3cc(C(F)(F)P(=O)(O)O)ccc3s2)C1` [Compound 187, ((2-(((5S,8S,10aR)-3-acetyl-8-((4-chlorophenyl)(methyl)carbamoyl)-6-oxodecahydropyrrolo[1,2-a][1,5]diazocin-5-yl)carbamoyl)benzo[b]thiophen-5-yl)difluoromethyl)phosphonic acid], for which the results for the 50% inhibitory concentration (IC50) in assay [1] and in assay [2] were 1000 to 10000 nM and 300 to 3000 nM, respectively.
Take `CC(=O)N1CC[C@H]2CC[C@@H](C(=O)N(C)c3ccc(Cl)c(Cl)c3)N2C(=O)[C@@H](NC(=O)c2cc3cc(C(F)(F)P(=O)(O)O)ccc3s2)C1` [Compound 188, ((2-(((5S,8S,10aR)-3-acetyl-8-((3,4-dichlorophenyl)(methyl)carbamoyl)-6-oxodecahydropyrrolo[1,2-a][1,5]diazocin-5-yl)carbamoyl)benzo[b]thiophen-5-yl)difluoromethyl)phosphonic acid]: the IC50 in assay [1] is 1000 to 10000 nM; in assay [2] it was 300 to 3000 nM.
The like results for `CC(=O)N1CC[C@H]2CC[C@@H](C(=O)Nc3ccc4ccnnc4c3)N2C(=O)[C@@H](NC(=O)c2cc3cc(C(F)(F)P(=O)(O)O)ccc3s2)C1` [Compound 189, ((2-(((5S,8S,10aR)-3-acetyl-8-(cinnolin-7-ylcarbamoyl)-6-oxodecahydropyrrolo[1,2-a][1,5]diazocin-5-yl)carbamoyl)benzo[b]thiophen-5-yl)difluoromethyl)phosphonic acid] were, in that order, 1000 to 10000 nM and 300 to 3000 nM.
As to `CC(=O)N1CC[C@H]2CC[C@@H](C(=O)N(C)c3ccc(N4CCOCC4)cc3)N2C(=O)[C@@H](NC(=O)c2cc3cc(C(F)(F)P(=O)(O)O)ccc3s2)C1` [Compound 190, ((2-(((5S,8S,10aR)-3-acetyl-8-(methyl(4-morpholinophenyl)carbamoyl)-6-oxodecahydropyrrolo[1,2-a][1,5]diazocin-5-yl)carbamoyl)benzo[b]thiophen-5-yl)difluoromethyl)phosphonic acid], the half-inhibitory concentration (IC50) in assay [1] was 1000 to 10000 nM; in assay [2], 300 to 3000 nM.
Consider `CC(=O)N1CC[C@H]2CC[C@@H](C(=O)N(C)c3ccc4nnccc4c3)N2C(=O)[C@@H](NC(=O)c2cc3cc(C(F)(F)P(=O)(O)O)ccc3s2)C1` [Compound 191, ((2-(((5S,8S,10aR)-3-acetyl-8-(cinnolin-6-yl(methyl)carbamoyl)-6-oxodecahydropyrrolo[1,2-a][1,5]diazocin-5-yl)carbamoyl)benzo[b]thiophen-5-yl)difluoromethyl)phosphonic acid], for which the results for the IC50 in assay [1] and in assay [2] were 100 to 1000 nM and at most 300 nM, respectively.
Take `CC(=O)N1CC[C@H]2CC[C@@H](C(=O)N3CCC(C(=O)N4CCCCC4)CC3)N2C(=O)[C@@H](NC(=O)c2cc3cc(C(F)(F)P(=O)(O)O)ccc3s2)C1` [Compound 192, ((2-(((5S,8S,10aR)-3-acetyl-6-oxo-8-(4-(piperidine-1-carbonyl)piperidine-1-carbonyl)decahydropyrrolo[1,2-a][1,5]diazocin-5-yl)carbamoyl)benzo[b]thiophen-5-yl)difluoromethyl)phosphonic acid]: the IC50 in assay [1] fell in the range of 1000 to 10000 nM; in assay [2] it was 3000 to 30000 nM.
As to `CC(=O)N1CC[C@H]2CC[C@@H](C(=O)N3CC[C@H](C(=O)N4CCCCC4)C3)N2C(=O)[C@@H](NC(=O)c2cc3cc(C(F)(F)P(=O)(O)O)ccc3s2)C1` [Compound 193, ((2-(((5S,8S,10aR)-3-acetyl-6-oxo-8-((S)-3-(piperidine-1-carbonyl)pyrrolidine-1-carbonyl)decahydropyrrolo[1,2-a][1,5]diazocin-5-yl)carbamoyl)benzo[b]thiophen-5-yl)difluoromethyl)phosphonic acid], the IC50 was 100 to 1000 nM in assay [1] and 300 to 3000 nM in assay [2].
For the molecule `CC(=O)N1CC[C@H]2CC[C@@H](C(=O)N3CC[C@@H](C(=O)N4CCCCC4)C3)N2C(=O)[C@@H](NC(=O)c2cc3cc(C(F)(F)P(=O)(O)O)ccc3s2)C1` [Compound 194, ((2-(((5S,8S,10aR)-3-acetyl-6-oxo-8-((R)-3-(piperidine-1-carbonyl)pyrrolidine-1-carbonyl)decahydropyrrolo[1,2-a][1,5]diazocin-5-yl)carbamoyl)benzo[b]thiophen-5-yl)difluoromethyl)phosphonic acid], the figures for the IC50 in assay [1] and in assay [2] were 1000 to 10000 nM and 300 to 3000 nM, respectively.
